The results in this text go back to patent publication US6461997B1, “Triazole sulfones having herbicidal activity” (Monsanto Technology LLC, priority 1999, dated 2002).

Test [1] deals with SORHA (johnsongrass (seedling)). As to the kind of experiment: Pre-plant incorporated (PPI) herbicidal activity, warm season. In kind it is in vivo, Sorghum halepense. To be noted: for PPI activity GR80, SORHA: pre-plant incorporated, lowest tested rate with 80% or greater inhibition, about 14 days; for inhibition at 10 g/ha / inhibition at 30 g/ha / inhibition at 100 g/ha / inhibition at 300 g/ha / inhibition at 900 g/ha: Sorghum halepense, PPI application, read-out: Percent inhibition SORHA. The method, then: (§1) In another set of tests, the pre-plant incorporated (PPI) activity of compounds of this invention was evaluated on the same species as for the pre-emergence tests described above. In the PPI tests the following procedure, designed to simulate PPI application, was used.
(§2) A pre-prepared topsoil mixture (described above) was placed in a pot and compacted to a depth of 1.0 to 1.25 cm from the top of the pot. Seeds of each of several monocotyledonous and dicotyledonous annual plant species were placed on top of the soil. A sufficient quantity of soil to cover the seeds and level fill the pot was weighed into an open container. A known amount of the test compound was dissolved or suspended in an organic solvent and applied by spraying to this cover soil. The cover soil was thoroughly mixed to distribute the test compound throughout the cover soil, and was then applied as a cover layer over the seeds. Untreated soil was used as a cover layer for control pots. After treatment the plants were placed in a greenhouse where they received 0.64 cm of overhead irrigation. All subsequent watering consisted of a light overhead mist and/or subirrigation as needed for germination and growth. Tables 9 and 10 below relate to warm season plant species which were placed after pre-emergence treatment in a greenhouse with a 30/21° C. day/night temperature regime. Tables 11 and 12 below relates to cool season plant species placed after pre-emergence treatment in a greenhouse or growth chamber with an 18/13° C. day/night temperature regime. Only the compounds of Examples 1, 6, 8, 11, 13 and 15-20 were included in PPI tests.
(§3) Approximately 14 days after planting and treating, the plants were observed and herbicidal efficacy recorded as percent inhibition by comparison with untreated plants.

Test [2] deals with STEME (common chickweed). As to the kind of experiment: Pre-plant incorporated (PPI) herbicidal activity, cool season. In kind it is in vivo, Stellaria media. To be noted: pre-plant incorporated; lowest tested rate with 80% or greater inhibition; about 14 days. As for the experimental part: as §1, §2, §3
In a further test the test system is PANDI (fall panicum). Put plainly: Pre-emergence herbicidal activity, warm season. In kind it is in vivo, Panicum dichotomiflorum. To be noted: GR80 = lowest tested rate (300, 100, 30, 10 g/ha) with 80% or greater inhibition; approx. 14 days after treating; 30/21° C. Summed up:
(§4)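 Seeds sown in sterilised fertilised topsoil received surface-applied compound in 50:50 acetone/water, typically at 300, 100, 30 and 10 g/ha, then greenhouse-grown at 30/21° C (warm-season species) or 18/13° C (cool-season species). Percent inhibition versus untreated plants was scored at about 14 days, giving GR80; an asterisk marks activity short of 80% at the top rate.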

The test system of a further test is ALOMY (blackgrass). Put plainly: Pre-plant incorporated (PPI) herbicidal activity, cool season. In kind it is in vivo, Alopecurus myosuroides. To be noted: for PPI activity GR80, ALOMY: pre-plant incorporated, lowest tested rate with 80% or greater inhibition, about 14 days. As for the experimental part: as §1, §2, §3
The test system of another test is SORVU (shattercane). Put plainly: Pre-plant incorporated (PPI) herbicidal activity, warm season. In kind it is in vivo, Sorghum vulgare. To be noted: for PPI activity GR80, SORVU: pre-plant incorporated, lowest tested rate with 80% or greater inhibition, about 14 days; for inhibition at 10 g/ha / inhibition at 30 g/ha / inhibition at 100 g/ha / inhibition at 300 g/ha / inhibition at 900 g/ha: Sorghum bicolor, PPI application, read-out: Percent inhibition SORVU. As for the experimental part: as §1, §2, §3

The test system of test [3] is PANMI (wild proso millet). Described as above. In kind it is in vivo, Panicum miliaceum. To be noted: for PPI activity GR80, PANMI: pre-plant incorporated, lowest tested rate with 80% or greater inhibition, about 14 days; for inhibition at 10 g/ha / inhibition at 30 g/ha / inhibition at 100 g/ha / inhibition at 300 g/ha / inhibition at 900 g/ha: Panicum miliaceum, PPI application, read-out: Percent inhibition PANMI. As for the experimental part:
as §1, §2, §3

Test [4] deals with CHEAL (common lambsquarters). As to the kind of experiment: Pre-emergence herbicidal activity, warm season. In kind it is in vivo, Chenopodium album. To be noted: GR80 = lowest tested rate (300, 100, 30, 10 g/ha) with 80% or greater inhibition; approx. 14 days after treating; 30/21° C. Summed up:
as §4

Test [5] concerns LAMPU (purple deadnettle). As to the kind of experiment: Pre-emergence herbicidal activity, cool season. To be noted: lowest tested rate with 80% or greater inhibition; rates 300, 100, 30, 10 g/ha; about 14 days. In kind it is in vivo, Lamium purpureum. Summed up: as §4
Test [6] relates to STEME (common chickweed). As to the kind of experiment: Pre-emergence herbicidal activity, cool season. In kind it is in vivo, Stellaria media. To be noted: lowest tested rate with 80% or greater inhibition; rates 300, 100, 30, 10 g/ha; about 14 days. Summed up:
as §4

A further test concerns SASKR (russian thistle). As to the kind of experiment: Pre-emergence herbicidal activity, cool season. In kind it is in vivo, Salsola kali. To be noted: lowest tested rate with 80% or greater inhibition; rates 300, 100, 30, 10 g/ha; about 14 days. Summed up:
as §4

Another test concerns ECHCG (barnyardgrass). As to the kind of experiment: Pre-emergence herbicidal activity, warm season. In kind it is in vivo, Echinochloa crus-galli. To be noted: for Pre-emergence activity (GR80) ECHCG: GR80 = lowest tested rate (300, 100, 30, 10 g/ha) with 80% or greater inhibition, approx. 14 days after treating, 30/21° C. Summed up: as §4
The subject of the next test is corn (ZEAMX). As to the kind of experiment: Selectivity test, PPI, warm season crop. In kind it is in vivo, Zea mays. To be noted: Zea mays, PPI application, read-out: Percent inhibition ZEAMX. As for the experimental part: as §2, §3
Additional pre-emergence and PPI tests were conducted by the procedures described above, on warm and cool season weed species in the presence of crop species, to assess herbicidal selectivity. Crop species included in warm season tests were corn (Zea mays, ZEAMX), rice (Oryza sativa, ORYSA) and soybean (Glycine max, GLYMX). Crop species included in cool season tests were wheat (Triticum aestivum, TRZAW), barley (Hordeunm vulgare, HORVX) and oilseed rape (Brassica napus, BRSNS).
Tables 15 and 16 relate to pre-emergence and PPI tests respectively on warm season species. Table 17 relates to pre-emergence tests on cool season species.

Usually inhibition stands for the relative decrease from the control value, in per cent.

Consider `CCN(CC)C(=O)n1cnc(S(=O)(=O)C(F)(F)C(=O)c2ccccc2)n1` [Example 6], for which the “PPI activity GR80, SORHA” value in test [1] came to 100 g/ha. Further, the “PPI activity GR80, STEME” value in the test on STEME (common chickweed) [2] came to 100 g/ha. For the same molecule, the “Pre-emergence activity (GR80) PANDI” value with PANDI (fall panicum) was 300 g/ha. Also, the “PPI activity GR80, ALOMY” value with ALOMY (blackgrass) was found to be 300 g/ha. Moreover, the “PPI activity GR80, SORVU” value in the test on SORVU (shattercane) came out at 300 g/ha. In addition, in [3], the “PPI activity GR80, PANMI” value is reported as 100 g/ha. In addition, the “Pre-emergence activity (GR80) CHEAL” value in test [4] is reported as 300 g/ha. Moreover, the “Pre-emergence activity GR80, LAMPU” value in [5] was found to be 100 g/ha. Moreover, the “Pre-emergence activity GR80, STEME” value in the test with STEME (common chickweed) [6] came to 300 g/ha. Also, the “Pre-emergence activity GR80, SASKR” value in the test on SASKR (russian thistle) was “[empty]”. Also, in the test with ECHCG (barnyardgrass), the “Pre-emergence activity (GR80) ECHCG” value was “* (activity observed, at least at highest rate, but <80% inhibition)”.
For `CCN(CC)C(=O)n1cnc(S(=O)(=O)C(F)(F)C(F)(F)SC)n1` [Example 14], the “Pre-emergence activity (GR80) PANDI” value in the test on PANDI (fall panicum) stood at 100 g/ha. Besides, in [4], the “Pre-emergence activity (GR80) CHEAL” value was determined as 300 g/ha. In addition, the “Pre-emergence activity GR80, LAMPU” value in test [5] was found to be 300 g/ha. The “Pre-emergence activity GR80, STEME” value with STEME (common chickweed) [6] worked out at 300 g/ha. Besides, in the test with SASKR (russian thistle), the “Pre-emergence activity GR80, SASKR” value is “[empty]”. Also, the “Pre-emergence activity (GR80) ECHCG” value in the test with ECHCG (barnyardgrass) was 300 g/ha.
Regarding `CCN(CC)C(=O)n1cnc(S(=O)(=O)C(F)F)n1` [Example 15, 1-(N,N-diethylcarbamoyl)-3-(difluoromethylsulfonyl)-1,2,4-triazole], the inhibition at 10 g/ha in test [1] came to 40%; with SORVU (shattercane) it was 10%; in [3] it was 10%; with corn (ZEAMX), 0%; with ECHCG (barnyardgrass) (Echinochloa crus-galli, pre-emergence application, 10 g/ha, read-out: Percent inhibition, weed ECHCG) it was 0%. Besides, the inhibition at 30 g/ha in test [1] worked out at 20%; in the test with SORVU (shattercane), 60%; in test [3] it was 70%; in the test on corn (ZEAMX) it was 0%; in the test with ECHCG (barnyardgrass) (Echinochloa crus-galli, pre-emergence application, 30 g/ha, read-out: Percent inhibition, weed ECHCG), 0%. The inhibition at 100 g/ha was determined as 100% in test [1]; 100% with SORVU (shattercane); 99% in test [3]; 20% with corn (ZEAMX); 20% with ECHCG (barnyardgrass) (Echinochloa crus-galli, pre-emergence application, 100 g/ha, read-out: Percent inhibition, weed ECHCG). In addition, the inhibition at 300 g/ha in [1] stood at 100%; in the test on SORVU (shattercane), 100%; in test [3], 100%; with corn (ZEAMX), 60%; in the test on ECHCG (barnyardgrass) (Echinochloa crus-galli, pre-emergence application, 300 g/ha, read-out: Percent inhibition, weed ECHCG), 60%. Further, the inhibition at 900 g/ha was found to be 95% in [1]; 100% in the test on SORVU (shattercane); 100% in test [3]; 85% in the test with corn (ZEAMX); 70% in the test on ECHCG (barnyardgrass) (Echinochloa crus-galli, pre-emergence application, 900 g/ha, read-out: Percent inhibition, weed ECHCG). For the same molecule, the “PPI activity GR80, SORHA” value in [1] is 30 g/ha. Further, in the test on STEME (common chickweed) [2], the “PPI activity GR80, STEME” value was found to be 300 g/ha. In addition, in the test with PANDI (fall panicum), the “Pre-emergence activity (GR80) PANDI” value worked out at 100 g/ha. Moreover, the “PPI activity GR80, ALOMY” value in the test on ALOMY (blackgrass) came out at 100 g/ha. In addition, in the test on SORVU (shattercane), the “PPI activity GR80, SORVU” value was 300 g/ha. Further, the “PPI activity GR80, PANMI” value in [3] came to 30 g/ha. In addition, in the test with ECHCG (barnyardgrass), the “Pre-emergence activity (GR80) ECHCG” value amounted to 100 g/ha.
As to `C=C(Br)CC(F)(F)S(=O)(=O)c1ncn(C(=O)N(CC)CC)n1` [Example 19], the inhibition at 10 g/ha turned out to be 60% in test [1]; 60% with ALOMY (blackgrass) (Alopecurus myosuroides, weed, PPI application, 10 g/ha, read-out: Percent inhibition ALOMY); 30% with SORVU (shattercane); 0% in [3]; 0% in the test on corn (ZEAMX). Moreover, the inhibition at 30 g/ha in test [1] turned out to be 80%; in the test with ALOMY (blackgrass) (Alopecurus myosuroides, weed, PPI application, 30 g/ha, read-out: Percent inhibition ALOMY), 50%; with SORVU (shattercane), 50%; in test [3], 60%; with corn (ZEAMX) it was 0%. Also, the inhibition at 100 g/ha in [1] worked out at 100%; in the test with ALOMY (blackgrass) (Alopecurus myosuroides, weed, PPI application, 100 g/ha, read-out: Percent inhibition ALOMY), 70%; in the test on SORVU (shattercane), 65%; in [3], 100%; in the test with corn (ZEAMX) it was 10%. The inhibition at 300 g/ha was 100% in test [1]; 100% in the test on ALOMY (blackgrass) (Alopecurus myosuroides, weed, PPI application, 300 g/ha, read-out: Percent inhibition ALOMY); 100% with SORVU (shattercane); 100% in test [3]; 10% in the test on corn (ZEAMX). Also, the inhibition at 900 g/ha in [1] was determined as 100%; with ALOMY (blackgrass) (Alopecurus myosuroides, weed, PPI application, 900 g/ha, read-out: Percent inhibition ALOMY), 100%; in the test on SORVU (shattercane) it was 100%; in test [3], 100%; with corn (ZEAMX) it was 35%. For the same molecule, the “PPI activity GR80, SORHA” value in test [1] was 100 g/ha. Besides, in the test with STEME (common chickweed) [2], the “PPI activity GR80, STEME” value stood at 100 g/ha. Also, the “PPI activity GR80, ALOMY” value in the test on ALOMY (blackgrass) turned out to be 30 g/ha. Further, the “PPI activity GR80, SORVU” value in the test on SORVU (shattercane) was determined as 300 g/ha. In addition, the “PPI activity GR80, PANMI” value in test [3] was 100 g/ha. Moreover, the “Pre-emergence activity (GR80) CHEAL” value in test [4] was 100 g/ha. For the same molecule, in test [5], the “Pre-emergence activity GR80, LAMPU” value amounted to 30 g/ha. Besides, in the test with STEME (common chickweed) [6], the “Pre-emergence activity GR80, STEME” value is recorded as 10 g/ha. The “Pre-emergence activity GR80, SASKR” value with SASKR (russian thistle) is 100 g/ha. In addition, the “Pre-emergence activity (GR80) ECHCG” value in the test on ECHCG (barnyardgrass) came to 300 g/ha.
